Legend:
Hepatitis C virus = assay: Antiviral activity against Hepatitis C virus genotype 1b infected in human Huh5-2 cells assessed as luciferase activity after 4 days by Steady-Glo luciferase assay; assay type: functional, organism-based, Hepacivirus hominis; details: Huh-5-2, 96 h
[1] = Cytostatic activity against human Huh5-2 cells after 3 days by MTS method; assay type: cell-based, Huh-5-2
[2] = Selectivity index, ratio of CC50 for human Huh5-2 cells to EC50 for Hepatitis C virus genotype 1b infected in human Huh5-2 cells; assay type: toxicity, cell-based, Huh-5-2; details: read-out: Ratio CC50/EC50

Q: Which EC50 (Hepatitis C virus) does the source give for `O=C(O)c1ccc2[nH]c(-c3cc4cc([N+](=O)[O-])ccc4oc3=O)nc2c1` here?
A: Its EC50 is 6.9 µM.

Q: And the CC50 at 72 h [1]?
A: Its CC50 at 72 h is 10 µM.

Q: What about the selectivity ratio [2] of the same compound?
A: Its selectivity ratio is 1.5.

Q: For `Cc1ccc2[nH]c(-c3cc4ccccc4oc3=O)nc2c1`, which EC50 (Hepatitis C virus) is on record?
A: Its EC50 is 2.3 µM.

Q: And the CC50 at 72 h [1]?
A: The CC50 at 72 h was 2.3 µM.

Q: And the selectivity ratio [2]?
A: Its selectivity ratio is 1.

Q: With `COc1cccc2cc(-c3nc4cccnc4[nH]3)c(=O)oc12` as the compound, how does the EC50 (Hepatitis C virus) read?
A: Its EC50 is 84 µM.

Q: What about the CC50 at 72 h [1] of the same compound?
A: Its CC50 at 72 h is 170 µM.

Q: What about the selectivity ratio [2] of the same compound?
A: The selectivity ratio was 2.

Q: For `CC(=O)OC[C@H]1O[C@@H](n2c(-c3cc4ccccc4oc3=O)nc3ccccc32)[C@H](OC(C)=O)[C@@H]1OC(C)=O`, which EC50 (Hepatitis C virus) is on record?
A: Its EC50 is 60 µM.

Q: And the CC50 at 72 h [1]?
A: Its CC50 at 72 h is 98 µM.

Q: What about the selectivity ratio [2] of the same compound?
A: Its selectivity ratio is 1.6.

Q: With `O=C(O)c1ccc2[nH]c(-c3cc4ccccc4oc3=O)nc2c1` as the compound, how does the EC50 (Hepatitis C virus) read?
A: The EC50 was 40 µM.

Q: What about the CC50 at 72 h [1] of the same compound?
A: Its CC50 at 72 h is 13 µM.

Q: What about the selectivity ratio [2] of the same compound?
A: Its selectivity ratio is 0.32.

Q: Which EC50 (Hepatitis C virus) does the source give for `Cc1cc2nc(-c3c(C)c4ccccc4oc3=O)[nH]c2cc1C` here?
A: The EC50 was 40 µM.

Q: And the CC50 at 72 h [1]?
A: The CC50 at 72 h was 77 µM.

Q: And the selectivity ratio [2]?
A: The selectivity ratio was 2.

Q: Which results are given for `O=c1oc2ccccc2cc1-c1nc2cc(F)ccc2[nH]1`?
A: EC50 (Hepatitis C virus): 84 µM; CC50 at 72 h [1]: 13 µM; selectivity ratio [2]: 0.15

Q: For `Cc1cc2nc(-c3cc4ccccc4oc3=O)[nH]c2cc1C`, which EC50 (Hepatitis C virus) is on record?
A: The EC50 was 3 µM.

Q: And the CC50 at 72 h [1]?
A: Its CC50 at 72 h is 23 µM.

Q: What about the selectivity ratio [2] of the same compound?
A: Its selectivity ratio is 7.9.

Q: What does the source list for `CC(=O)OC[C@H]1O[C@@H](n2c(-c3c(C)c4ccccc4oc3=O)nc3ccccc32)[C@H](OC(C)=O)[C@@H]1OC(C)=O`?
A: EC50 (Hepatitis C virus): 941 µM; CC50 at 72 h [1]: 941 µM; selectivity ratio [2]: 1

Q: Which results are given for `O=c1oc2ccccc2cc1-c1nc2ccccc2n1[C@@H]1O[C@H](CO)[C@@H](O)[C@H]1O`?
A: EC50 (Hepatitis C virus): 20 µM; CC50 at 72 h [1]: 127 µM; selectivity ratio [2]: 6.4

Q: With `Cc1c(-c2nc3ccccc3[nH]2)c(=O)oc2ccccc12` as the compound, how does the EC50 (Hepatitis C virus) read?
A: The EC50 was 40 µM.

Q: What about the CC50 at 72 h [1] of the same compound?
A: Its CC50 at 72 h is 27 µM.

Q: And the selectivity ratio [2]?
A: Its selectivity ratio is 0.66.

Q: With `Cc1c(-c2nc3cc(F)ccc3[nH]2)c(=O)oc2ccccc12` as the compound, how does the EC50 (Hepatitis C virus) read?
A: Its EC50 is 79 µM.

Q: And the CC50 at 72 h [1]?
A: The CC50 at 72 h was 170 µM.

Q: What about the selectivity ratio [2] of the same compound?
A: The selectivity ratio was 2.2.

Q: With `Cc1ccc2[nH]c(-c3c(C)c4ccccc4oc3=O)nc2c1` as the compound, how does the EC50 (Hepatitis C virus) read?
A: The EC50 was 28 µM.

Q: And the CC50 at 72 h [1]?
A: The CC50 at 72 h was 29 µM.

Q: And the selectivity ratio [2]?
A: The selectivity ratio was 1.

Q: For `Cc1ccc2[nH]c(-c3cc4c(ccc5ccccc54)oc3=O)nc2c1`, which EC50 (Hepatitis C virus) is on record?
A: Its EC50 is 5.5 µM.

Q: What about the CC50 at 72 h [1] of the same compound?
A: Its CC50 at 72 h is 77 µM.

Q: And the selectivity ratio [2]?
A: Its selectivity ratio is 14.

Q: Which results are given for `COc1cccc2cc(-c3nc4ccc(C)cc4[nH]3)c(=O)oc12`?
A: EC50 (Hepatitis C virus): 12 µM; CC50 at 72 h [1]: 12 µM; selectivity ratio [2]: 1

Q: For `CC(=O)Oc1ccc2c(C)c(-c3nc4ccccc4[nH]3)c(=O)oc2c1`, which EC50 (Hepatitis C virus) is on record?
A: The EC50 was 153 µM.

Q: And the CC50 at 72 h [1]?
A: Its CC50 at 72 h is 153 µM.

Q: And the selectivity ratio [2]?
A: Its selectivity ratio is 1.

Q: Which EC50 (Hepatitis C virus) does the source give for `Cc1cc2nc(-c3cc4cc(Br)ccc4oc3=O)[nH]c2cc1C` here?
A: The EC50 was 40 µM.

Q: What about the CC50 at 72 h [1] of the same compound?
A: Its CC50 at 72 h is 172 µM.

Q: What about the selectivity ratio [2] of the same compound?
A: The selectivity ratio was 4.3.

Q: With `Cc1c(-c2nc3ccccc3n2[C@@H]2O[C@H](CO)[C@@H](O)[C@H]2O)c(=O)oc2ccccc12` as the compound, how does the EC50 (Hepatitis C virus) read?
A: The EC50 was 110 µM.

Q: What about the CC50 at 72 h [1] of the same compound?
A: The CC50 at 72 h was 122 µM.

Q: And the selectivity ratio [2]?
A: Its selectivity ratio is 1.1.

Q: What does the source list for `O=c1oc2ccccc2cc1-c1nc2cc3ccccc3cc2[nH]1`?
A: EC50 (Hepatitis C virus): 105 µM; CC50 at 72 h [1]: 135 µM; selectivity ratio [2]: 1.3

Q: For `O=C(O)c1ccc2[nH]c(-c3cc4ccc(I)cc4oc3=O)nc2c1`, which EC50 (Hepatitis C virus) is on record?
A: The EC50 was 118 µM.

Q: And the CC50 at 72 h [1]?
A: Its CC50 at 72 h is 118 µM.

Q: What about the selectivity ratio [2] of the same compound?
A: Its selectivity ratio is 1.

From ChEMBL document CHEMBL2375297, “Coumarins hinged directly on benzimidazoles and their ribofuranosides to inhibit hepatitis C virus” (Eur J Med Chem, 2013)
